We go through two compounds from US11419855B2, “Pharmaceutical preparation” (KOWA COMPANY, LTD., priority 2017, dated 2022).

A short description of data set [1]: Examination of stability of pemafibrate, stored alone in open state in dish (HPLC related substances). It is filed as physicochemical. The protocol: 250 mg of pemafibrate was placed in a dish, and stored in an uncapped state (open state) in a dark place at 40° C. and 75% relative humidity (RH) for 3 months.
The amounts of pemafibrate-derived decomposition products (related substances) before the start of storage and after storage at 40° C. and 75% RH for 3 months were evaluated through the following method.
The sum of related substance-derived peak areas was evaluated in terms of a ratio (%) to the pemafibrate-derived peak area using an HPLC apparatus, and the ratio was defined as the “Total amount (%) of related substances”.

Data set [2] in a line: Hygroscopic property evaluation of pemafibrate crystal (Karl Fischer moisture content). It is filed as physicochemical. Here is the method:
A pemafibrate crystal was produced by recrystallizing pemafibrate from an ethyl acetate/heptane mixture in accordance with the method for producing a pemafibrate crystal as described in Non-Patent Document 1.
250 mg of the pemafibrate crystal was placed in a dish, and stored in an uncapped state (open state) in a dark place at 25° C. and 83% relative humidity (RH) for 3 months. The hygroscopic property was evaluated by measuring the moisture contents before and after the storage. The measurement of the moisture content was performed by a coulometric titration method in accordance with The Japanese Pharmacopoeia, 17th Edition, Moisture Content Measurement Method (Karl Fischer Method).

`CC[C@@H](Oc1cccc(CN(CCCOc2ccc(OC)cc2)c2nc3ccccc3o2)c1)C(=O)O` [Pemafibrate, (2R)-2-[3-([1,3-Benzoxazol-2-yl[3-(4-methoxyphenoxy)propyl]amino]methyl)phenoxy]butanoic acid]: the “Stability at high humidity” value in data set [1] (75% RH, storage for 3 months, in words) is on record as “stable”. In addition, the “Total amount (%) of related substances, before storage” value in data set [1] (before storage, HPLC ratio of related substance peak areas to pemafibrate peak area) is <0.05%. Besides, the “Total amount (%) of related substances, after storage at 40° C. and 75% RH for 3 months” value in data set [1] (open state in dish, dark place, 40° C., 75% RH, 3 months) is given as <0.05%.
On to `CC[C@@H](Oc1cccc(CN(CCCOc2ccc(OC)cc2)c2nc3ccccc3o2)c1)C(=O)O` [Pemafibrate crystal, (2R)-2-[3-([1,3-Benzoxazol-2-yl[3-(4-methoxyphenoxy)propyl]amino]methyl)phenoxy]butanoic acid], for which the “Moisture content (%), before storage” value in data set [2] (before storage, Karl Fischer coulometric titration) is <0.1%. For the same compound, in data set [2] (open state in dish, dark place, 25° C., 83% RH, 3 months), the “Moisture content (%), after storage at 25° C. and 83% RH for 3 months” value is <0.1%. Further, the Hygroscopic property entry in data set [2] (storage at 83% RH for 3 months, in words) was “not hygroscopic”.
